The test system of this assay is MDA-231 cancer cells. Kind of assay: Inhibition of proliferation assay, cell confluence (IncuCyte live cell imaging). It counts as cell-based. To be noted: MDA-231 cells, concentration 10 uM; relative confluence normalised to time zero, images every 3 h over 4-5 d. An excerpt: Inhibition of Proliferation Assay Cell Confluence The confluence value is a surrogate for cell proliferation and growth. The value is expressed as a percent confluence, which represents the fraction of culture dish-surface that is occupied by cells. As the number of cells in the dish increases over time due to proliferation, so will their coverage of that surface increase. Expansion of the cell population on the cell culture-dish surface and confluence have mostly a linear relationship until the cells on the plate surface begin to reach saturation or maximum density. Confluence is determined based on image analysis. Image based software can identify objects in the image field base on changes to pixel density in a grey scale image. The software can then assign a mask to those pixels within the object. Objects can be ‘gated’ out based on size and shape. To determine cell confluence, images of cells are first masked as objects. The surface area of the image that is masked is measured and compared to the total surface area of the culture dish surface to obtain a percent confluence. MDA-231 cancer cells were obtained from ATCC. Cells were cultured in Dulbecco's Modified Eagle Medium (DMEM) supplemented with 10% Fetal Bovine Serum (FBS), 2 mM Glutamax, 1 mM Non Essential Amino Acid (NEAA) solution and 1 mM sodium pyruvate. Compounds were dissolved in DMSO at 10 mM and diluted in cellular medium and tested at 10 μM (micromolar). Final DMSO concentrations were <0.1%. Images were acquired with an IncuCyte Live Cell Imaging microscopy (Essen Bioscience) at every 3 h under cell culture conditions with 10× objective over 4-5 d. Cell confluence was calculated from one field of view per well using the IncuCyte in-built algorithm. Relative confluence values were obtained by normalising each value to the time zero value in each sample.
As to `CC[C@H]1OC(=O)[C@H](C)[C@@H](O[C@H]2C[C@@](C)(OC)[C@@H](O)[C@H](C)O2)[C@H](C)[C@@H](O[C@@H]2O[C@H](C)C[C@H](N(C)C)[C@H]2O)[C@](C)(O)C[C@@H](C)CN(CCCCCCCCCC[PH](c2ccccc2)(c2ccccc2)c2ccccc2)[C@H](C)[C@@H](O)[C@]1(C)O` [Example 14, {10-[(2R,3S,4R,5R,8R,10R,11R,12S,13S,14R)-11-{[(2S,3R,4S,6R)-4-(dimethylamino)-3-hydroxy-6-methyloxan-2-yl]oxy}-2-ethyl-3,4,10-trihydroxy-13-{[(2R,4R,5S,6S)-5-hydroxy-4-methoxy-4,6-dimethyloxan-2-yl]oxy}-3,5,8,10,12,14-hexamethyl-15-oxo-1-oxa-6-azacyclopentadecan-6-yl]decyl}triphenylphosphonium iodide], the “% Confluence” value amounted to 10.1%.

For `CC[C@H]1OC(=O)[C@H](C)[C@@H](O[C@H]2C[C@@](C)(OC)[C@@H](O)[C@H](C)O2)[C@H](C)[C@@H](O[C@@H]2O[C@H](C)C[C@H](N(C)C)[C@H]2O)[C@](C)(O)C[C@@H](C)CN(CCCCCCCCC[PH](c2ccccc2)(c2ccccc2)c2ccccc2)[C@H](C)[C@@H](O)[C@]1(C)O` [Example 15, {9-[(2R,3S,4R,5R,8R,10R,11R,12S,13S,14R)-11-{[(2S,3R,4S,6R)-4-(dimethylamino)-3-hydroxy-6-methyloxan-2-yl]oxy}-2-ethyl-3,4,10-trihydroxy-13-{[(2R,4R,5S,6S)-5-hydroxy-4-methoxy-4,6-dimethyloxan-2-yl]oxy}-3,5,8,10,12,14-hexamethyl-15-oxo-1-oxa-6-azacyclopentadecan-6-yl]nonyl}triphenylphosphonium iodide], the “% Confluence” value is given as 10.7%.

For the compound `CC[C@H]1OC(=O)[C@H](C)[C@@H](O)[C@H](C)[C@@H](O)[C@](C)(O)C[C@@H](C)CN(C(=O)CCCCCCCCCCCCC[P+](c2ccccc2)(c2ccccc2)c2ccccc2)[C@H](C)[C@@H](O)[C@]1(C)O` [Example 16, {14-[(2R,3S,4R,5R,8R,10R,11R,12S,13S,14R)-2-ethyl-3,4,10,11,13-pentahydroxy-3,5,8,10,12,14-hexamethyl-15-oxo-1-oxa-6-azacyclopentadecan-6-yl]-14-oxotetradecyl}triphenylphosphonium hexafluorophosphate(V)], the “% Confluence” value is 9.9%.

`CC[C@H]1OC(=O)[C@H](C)[C@@H](O[C@H]2C[C@@](C)(OC)[C@@H](O)[C@H](C)O2)[C@H](C)[C@@H](O[C@@H]2O[C@H](C)C[C@H](N(C)C)[C@H]2O)[C@](C)(O)C[C@@H](C)CN(C)[C@H](C)[C@@H](OC(=O)NCCCCCC[P+](c2ccccc2)(c2ccccc2)c2ccccc2)[C@]1(C)O.[Br-]` [Example 17, (2R,3R,4R,5R,8R,10R,11R,12S,13S,14R)-11-{[(2S,3R,4S,6R)-4-(dimethylamino)-3-hydroxy-6-methyloxan-2-yl]oxy}-2-ethyl-3,10-dihydroxy-13-{[(2R,4R,5S,6S)-5-hydroxy-4-methoxy-4,6-dimethyloxan-2-yl]oxy}-3,5,6,8,10,12,14-heptamethyl-15-oxo-1-oxa-6-azacyclopentadecan-4-yl N-[6-(triphenylphosphoniumyl)hexyl]carbamate bromide]: the “% Confluence” value was determined as 82.6%.

Regarding `CC[C@H]1OC(=O)[C@H](C)[C@@H](O[C@H]2C[C@@](C)(OC)[C@@H](O)[C@H](C)O2)[C@H](C)[C@@H](O[C@@H]2O[C@H](C)C[C@H](N(C)C)[C@H]2OC(C)=O)[C@](C)(O)C[C@@H](C)CN(C)[C@H](C)[C@@H](OC(=O)NCCCCCCCCCC[P+](c2ccccc2)(c2ccccc2)c2ccccc2)[C@]1(C)O.[Br-]` [Example 18, (2S,3R,4S,6R)-4-(dimethylamino)-2-{[(2R,3R,4R,5R,8R,10R,11R,12S,13S,14R)-2-ethyl-3,10-dihydroxy-13-{[(2R,4R,5S,6S)-5-hydroxy-4-methoxy-4,6-dimethyloxan-2-yl]oxy}-3,5,6,8,10,12,14-heptamethyl-15-oxo-4-({[10-(triphenylphosphosphoniumyl)decyl]carbamoyl}oxy)-1-oxa-6-azacyclopentadecan-11-yl]oxy}-6-methyloxan-3-yl acetate bromide], the “% Confluence” value was 9.6%.

As for `CC[C@H]1OC(=O)[C@H](C)[C@@H](O[C@H]2C[C@@](C)(OC)[C@@H](O)[C@H](C)O2)[C@H](C)[C@@H](O[C@@H]2O[C@H](C)C[C@H](N(C)C)[C@H]2O)[C@](C)(O)C[C@@H](C)CN(C)[C@H](C)[C@@H](OC(=O)NCCCCCCCCCC[P+](c2ccccc2)(c2ccccc2)c2ccccc2)[C@]1(C)O.[Br-]` [Example 19, (2R,3R,4R,5R,8R,10R,11R,12S,13S,14R)-11-{[(2S,3R,4S,6R)-4-(dimethylamino)-3-hydroxy-6-methyloxan-2-yl]oxy}-2-ethyl-3,10-dihydroxy-13-{[(2R,4R,5S,6S)-5-hydroxy-4-methoxy-4,6-dimethyloxan-2-yl]oxy}-3,5,6,8,10,12,14-heptamethyl-15-oxo-1-oxa-6-azacyclopentadecan-4-yl N-[10-(triphenylphosphoniumyl)decyl]carbamate bromide], the “% Confluence” value was 9.7%.

With `CC[C@H]1OC(=O)[C@H](C)[C@@H](O[C@H]2C[C@@](C)(OC)[C@@H](O)[C@H](C)O2)[C@H](C)[C@@H](O[C@@H]2O[C@H](C)C[C@H](N(C)C)[C@H]2O)[C@](C)(O)C[C@@H](C)CN(C)[C@H](C)[C@@H](OC(=O)NCCCCCCCC[P+](c2ccccc2)(c2ccccc2)c2ccccc2)[C@]1(C)O.[Br-]` [Example 20, (2R,3R,4R,5R,8R,10R,11R,12S,13S,14R)-11-{[(2S,3R,4S,6R)-4-(dimethylamino)-3-hydroxy-6-methyloxan-2-yl]oxy}-2-ethyl-3,10-dihydroxy-13-{[(2R,4R,5S,6S)-5-hydroxy-4-methoxy-4,6-dimethyloxan-2-yl]oxy}-3,5,6,8,10,12,14-heptamethyl-15-oxo-1-oxa-6-azacyclopentadecan-4-yl N-[8-(triphenylphosphoniumyl)octyl]carbamate bromide], the “% Confluence” value turned out to be 13.5%.

Take `CC[C@H]1OC(=O)[C@H](C)[C@@H](O)[C@H](C)[C@@H](O[C@@H]2O[C@H](C)C[C@H](N(C)C)[C@H]2O)[C@](C)(O)C[C@@H](C)CN(C(=O)CCCCCCCCCCCCC[P+](c2ccccc2)(c2ccccc2)c2ccccc2)[C@H](C)[C@@H](O)[C@]1(C)O` [Example 21, {14-[(2R,3S,4R,5R,8R,10R,11R,12S,13S,14R)-11-{[(2S,3R,4S,6R)-4-(dimethylamino)-3-hydroxy-6-methyloxan-2-yl]oxy}-2-ethyl-3,4,10,13-tetrahydroxy-3,5,8,10,12,14-hexamethyl-15-oxo-1-oxa-6-azacyclopentadecan-6-yl]-14-oxotetradecyl}triphenylphosphonium hexafluorophosphate(V)]: the “% Confluence” value was determined as 8%.

Consider `CC[C@H]1OC(=O)[C@H](C)[C@@H](O[C@H]2C[C@@](C)(OC)[C@@H](O)[C@H](C)O2)[C@H](C)[C@@H](O[C@@H]2O[C@H](C)C[C@H](N(C)C)[C@H]2O)[C@](C)(O)C[C@@H](C)CN(CCCCCC(=O)N(C)CC[P+](c2ccccc2)(c2ccccc2)c2ccccc2)[C@H](C)[C@@H](O)[C@]1(C)O.[Br-]` [Example 22], for which the “% Confluence” value is on record as 102.7%.
